Results: article PMC9974463 (Proceedings of the National Academy of Sciences of the …, 2023)

Columns and labels:
[1] = molecular target: AbCphZ E251A (Acinetobacter baylyi DSM587); experiment: ITC
AbCphZ = molecular target: T1, AbCphZ (Acinetobacter baylyi, UniProt Q6FCQ4, E251A); experiment: isothermal titration calorimetry; assay type: binding
T1 sequence (Q6FCQ4 1-383 E251A): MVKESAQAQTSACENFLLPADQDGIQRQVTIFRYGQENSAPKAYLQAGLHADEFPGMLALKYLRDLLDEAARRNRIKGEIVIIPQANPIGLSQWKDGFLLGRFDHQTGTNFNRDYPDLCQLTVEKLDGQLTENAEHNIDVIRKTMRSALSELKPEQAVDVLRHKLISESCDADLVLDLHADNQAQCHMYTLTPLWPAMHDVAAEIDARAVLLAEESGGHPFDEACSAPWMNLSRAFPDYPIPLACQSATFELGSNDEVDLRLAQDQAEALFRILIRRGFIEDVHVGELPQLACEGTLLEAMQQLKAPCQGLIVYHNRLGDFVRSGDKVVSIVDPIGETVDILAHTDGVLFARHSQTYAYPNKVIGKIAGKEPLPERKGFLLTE

PaAotO = molecular target: T2, PaAotO (Pseudomonas aeruginosa, UniProt O50184); experiment: Arg release coupled assay; assay type: biochemical; conditions: 1 mM substrate, 500 nM enzyme
T2 sequence (O50184 1-370): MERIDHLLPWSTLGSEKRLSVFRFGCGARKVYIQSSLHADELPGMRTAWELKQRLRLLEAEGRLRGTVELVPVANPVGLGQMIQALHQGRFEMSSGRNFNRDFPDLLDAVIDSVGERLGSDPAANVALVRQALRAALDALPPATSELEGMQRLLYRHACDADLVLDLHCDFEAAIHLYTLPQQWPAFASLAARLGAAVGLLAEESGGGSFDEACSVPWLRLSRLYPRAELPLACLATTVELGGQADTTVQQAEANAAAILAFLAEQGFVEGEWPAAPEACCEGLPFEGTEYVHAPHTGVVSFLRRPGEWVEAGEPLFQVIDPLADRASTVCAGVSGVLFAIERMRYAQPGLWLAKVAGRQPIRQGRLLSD

[2] = molecular target: Acinetobacter baylyi cyanophycin dipeptide hydrolase CphZ (Acinetobacter baylyi DSM587); experiment: SEC

β-Asp-Arg dipeptide
Kd [1]: 7.6 µM

N=C(N)NCCC[C@H](N)C(=O)O [Arg]
Kd (AbCphZ): 471 ± 16.8 µM

N=C(N)NCCC[C@H](NC(=O)C[C@H](N)C(=O)O)C(=O)O [β-Asp-Arg]
Kd (AbCphZ): 7.6 ± 0.1 µM
Arg release coupled assay (340 nm) (PaAotO): AotO is specific for β-Asp-Arg and hydrolyzes it at a rate comparable to AbCphZ

Acinetobacter baylyi cyanophycin dipeptide hydrolase CphZ (enzyme)
stoichiometry N [2]: 2
